Assay results: US4243408A, “Herbicidal N-triazolylmethyl-substituted alpha-haloacetanilide” (Chevron Research Company, priority 1978, dated 1981)

Tests used:
Format in all cases: in vivo
Watergrass (Echinochloa) [1] = experiment: Pre-Emergent Test, herbicidal effectiveness; conditions: pre-emergence, 504 h, 0-to-100 scale, read-out: Herbicidal Effectiveness, % Control Pre, W; for pest or weed control at 11 µg/cm2: 11 micrograms per cm^2, 3 weeks; for pest or weed control at 33 µg/cm2: 33 micrograms per cm^2, 3 weeks
Description: (§1) An acetone solution of the test compound was prepared by mixing 750 mg of the compound, 220 mg of a nonionic surfactant and 25 ml of acetone. This solution was added to approximately 125 ml of water containing 156 mg of surfactant.
(§2) Seeds of the test vegetation were planted in a pot of soil and the test solution was sprayed uniformly onto the soil surface at a dose of 33 micrograms/cm^2. The pot was watered and placed in a greenhouse. […] At the end of this period, the herbicidal effectiveness of the compound was rated based on the physiological observations. A 0-to-100 scale was used, 0 representing no phytotoxicity, 100 representing complete kill.

[2] = system: Crabgrass (Digitaria sanguinalis); experiment: Pre-Emergent Test, herbicidal effectiveness; conditions: pre-emergence, 504 h, 0-to-100 scale, read-out: Herbicidal Effectiveness, % Control Pre, C; for pest or weed control at 33 µg/cm2: 33 micrograms per cm^2, 3 weeks
Description: as §1, §2

[3] = system: Lambsquarter (Chenopodium album); experiment: Pre-Emergent Test, herbicidal effectiveness; conditions: pre-emergence, 504 h, 0-to-100 scale, read-out: Herbicidal Effectiveness, % Control Pre, L; for pest or weed control at 33 µg/cm2: 33 micrograms per cm^2, 3 weeks
Description: as §1, §2

[4] = system: Mustard (Brassica arvensis); experiment: Pre-Emergent Test, herbicidal effectiveness; conditions: pre-emergence, 504 h, 0-to-100 scale; for pest or weed control at 33 µg/cm2: 33 micrograms per cm^2, 3 weeks
Description: as §1, §2

[5] = system: Pigweed (Amaranthus retroflexus); experiment: Pre-Emergent Test, herbicidal effectiveness; conditions: pre-emergence, 504 h, 0-to-100 scale, read-out: Herbicidal Effectiveness, % Control Pre, P; for pest or weed control at 33 µg/cm2: 33 micrograms per cm^2, 3 weeks
Description: as §1, §2

Wild Oats (Avena fatua) [6] = experiment: Pre-Emergent Test, herbicidal effectiveness; conditions: pre-emergence, 504 h, 0-to-100 scale, read-out: Herbicidal Effectiveness, % Control Pre, O; for pest or weed control at 33 µg/cm2: 33 micrograms per cm^2, 3 weeks; for pest or weed control at 11 µg/cm2: 11 micrograms per cm^2, 3 weeks
Description: as §1, §2

[7] = system: Crabgrass (Digitaria sanguinalis); experiment: Post-Emergent Test, herbicidal effectiveness; conditions: post-emergence, 504 h, 33 micrograms per cm^2, 3 weeks, 0-to-100 scale, read-out: Herbicidal Effectiveness, % Control Post, C
[8] = system: Lambsquarter (Chenopodium album); experiment: Post-Emergent Test, herbicidal effectiveness; conditions: post-emergence, 504 h, 33 micrograms per cm^2, 3 weeks, 0-to-100 scale, read-out: Herbicidal Effectiveness, % Control Post, L
[9] = system: Mustard (Brassica arvensis); experiment: Post-Emergent Test, herbicidal effectiveness; conditions: post-emergence, 504 h, 33 micrograms per cm^2, 3 weeks, 0-to-100 scale
[10] = system: Pigweed (Amaranthus retroflexus); experiment: Post-Emergent Test, herbicidal effectiveness; conditions: post-emergence, 504 h, 33 micrograms per cm^2, 3 weeks, 0-to-100 scale, read-out: Herbicidal Effectiveness, % Control Post, P
Watergrass (Echinochloa) [11] = experiment: Post-Emergent Test, herbicidal effectiveness; conditions: post-emergence, 504 h, 33 micrograms per cm^2, 3 weeks, 0-to-100 scale, read-out: Herbicidal Effectiveness, % Control Post, W
Wild Oats (Avena fatua) [12] = experiment: Post-Emergent Test, herbicidal effectiveness; conditions: post-emergence, 504 h, 33 micrograms per cm^2, 3 weeks, 0-to-100 scale, read-out: Herbicidal Effectiveness, % Control Post, O
[13] = 11 micrograms per cm^2, 3 weeks

Row | Compound | pest or weed control at 11 µg/cm2 (Watergrass (Echinochloa) [1]) [%] | pest or weed control at 33 µg/cm2 [2] [%] | pest or weed control at 33 µg/cm2 [3] [%] | pest or weed control at 33 µg/cm2 [4] [%] | pest or weed control at 33 µg/cm2 [5] [%] | pest or weed control at 33 µg/cm2 (Watergrass (Echinochloa) [1]) [%] | pest or weed control at 33 µg/cm2 (Wild Oats (Avena fatua) [6]) [%] | pest or weed control at 5000 µg/mL, 33 µg/cm2 [7] [%] | pest or weed control at 5000 µg/mL, 33 µg/cm2 [8] [%] | pest or weed control at 5000 µg/mL, 33 µg/cm2 [9] [%] | pest or weed control at 5000 µg/mL, 33 µg/cm2 [10] [%] | pest or weed control at 5000 µg/mL, 33 µg/cm2 (Watergrass (Echinochloa) [11]) [%] | pest or weed control at 5000 µg/mL, 33 µg/cm2 (Wild Oats (Avena fatua) [12]) [%] | pest or weed control at 11 µg/cm2 [2, 13] [%] | pest or weed control at 11 µg/cm2 [3, 13] [%] | pest or weed control at 11 µg/cm2 [4, 13] [%] | pest or weed control at 11 µg/cm2 [5, 13] [%] | pest or weed control at 11 µg/cm2 (Wild Oats (Avena fatua) [6]) [%]
1 | CCc1cccc(CC)c1N(Cc1nnc(C)[nH]1)C(=O)CCl [Compound 5B] | 100 | – | – | – | – | – | – | – | – | – | – | – | – | – | – | – | – | –
2 | Cc1nnc(CNc2c(C)cccc2C)o1 [Compound 1A, 2-(2,6-dimethylphenylaminomethyl)-5-methyl-1,3,4-oxadiazole] | – | 0 | 0 | 0 | 0 | 0 | 0 | 0 | 0 | 0 | 0 | 0 | 0 | – | – | – | – | –
3 | CCc1cccc(C)c1NCc1nnc(C)[nH]1 [Compound 6A] | – | 0 | 0 | 0 | 0 | 0 | 0 | 0 | 0 | 0 | 0 | 0 | 0 | – | – | – | – | –
4 | Cc1nnc(C(C)Nc2c(C)cccc2C)[nH]1 (centres unmarked) [Compound 11A] | – | 0 | 0 | 0 | 0 | 0 | 0 | 0 | 0 | 0 | 0 | 0 | 0 | – | – | – | – | –
5 | CCc1cccc(CC)c1NCc1nnc[nH]1 [Compound 20A] | – | 0 | 0 | 0 | 0 | 0 | 0 | 0 | 0 | 0 | 0 | 0 | 0 | – | – | – | – | –
6 | Cc1nnc(CN(C(=O)CCl)c2cccc(C(F)(F)F)c2)[nH]1 [Compound 26B] | – | 0 | 10 | 10 | 0 | 65 | 0 | 0 | 0 | 0 | 0 | 0 | 0 | – | – | – | – | –
7 | Cc1nnc(CN(C(=O)CCl)c2ccc(Cl)c(Cl)c2)[nH]1 [Compound 27B] | – | 0 | 0 | 0 | 0 | 0 | 0 | 0 | 0 | 0 | 0 | 0 | 0 | – | – | – | – | –
8 | CCc1cccc(C)c1N(Cc1nnc[nH]1)C(=O)CCl [Compound 17B] | – | 100 | 100 | 90 | 95 | 100 | 100 | 75 | 65 | 75 | 65 | 75 | 60 | – | – | – | – | –
9 | CSc1nnc(CNc2c(C)cccc2C)o1 [Compound 24A, 2-(2,6-dimethylphenylaminomethyl)-5-methylthio-1,3,4-oxadiazole] | – | 0 | 0 | 0 | 0 | 0 | 0 | 0 | 0 | 0 | 0 | 0 | 0 | – | – | – | – | –
10 | CCc1nnc(CN(C(=O)CCl)c2c(CC)cccc2CC)[nH]1 [Compound 8B] | 100 | – | – | – | – | – | – | – | – | – | – | – | – | 100 | 100 | 83 | 90 | 99
11 | CCc1cccc(CC)c1NCc1nnc(C)[nH]1 [Compound 5A] | – | 0 | 0 | 0 | 0 | 0 | 0 | 0 | 0 | 0 | 0 | 0 | 0 | – | – | – | – | –
12 | Cc1nc(CNc2c(C)cccc2C)n[nH]1 [Compound 2A, 3-(2,6-dimethylphenylaminomethyl)-5-methyl-1,2,4-triazole] | – | 0 | 0 | 0 | 0 | 0 | 0 | 0 | 0 | 0 | 0 | 0 | 0 | – | – | – | – | –
13 | CCc1cccc(C)c1NCc1nnc(C(C)C)[nH]1 [Compound 16A] | – | 0 | 0 | 0 | 0 | 0 | 0 | 0 | 0 | 0 | 0 | 0 | 0 | – | – | – | – | –
14 | CCc1cccc(C)c1N(Cc1nnc(C)[nH]1)C(=O)CCl [Compound 6B] | – | – | – | – | – | – | – | – | – | – | – | – | – | – | – | – | – | 100
